Test [1] deals with cerebellar granule neurons. Kind of test: LK-induced apoptosis of cultured cerebellar granule neurons (MTT viability). The format is cell-based, rat. Particulars: for effect of MEK inhibitor on neuroprotection by GW5074: LK + 1 uM GW5074 with 40 uM PD98059 or 10 uM U0126. On the procedure: Cultured cerebellar granule neurons undergo apoptosis when switched from HK to medium containing LK (D'Mello et al., 1993). […] Neuronal cultures were switched to medium containing LK, or LK medium containing different doses of GW5074. Cell viability was quantified 24 hours later. Control cultures received HK medium. […] Protection against LK-induced apoptosis is maximal at 1 uM.
Granule neuron cultures were obtained from dissociated cerebella of 7-8 day old rats as described previously (D'Mello et al., 1993). Cells were plated in Basal Eagle's Medium with Earles salts (BME) supplemented with 10% fetal bovine serum (FBS), 25 mM KCl, 2 mM glutamine (Gibco-BRL), and 100 ug/ml gentamycin on dishes coated with poly-L-lys ine in 24-well dishes at a density 1.0×10^6 cells/well, 1.2×10^7 cells/60 mm dish, or 3.0×10^7 cells/100 mm dish. Cytosine arabinofuranoside (10 uM) was added to the culture medium 18-22 hours after plating to prevent replication of non-neuronal cells. Cultures were maintained for 6-7 days prior to experimental treatments. For this, the cells were rinsed once and then maintained in low K^+ medium (serum-free BME medium, 5 mM KCl) or high K^+ medium (serum-free BME medium, supplemented with 20 mM KCl). When used to treat cultures, GW5074 was added at the time when cells were switched to LK medium. Treatment of cultures with pharmacological inhibitors was initiated 15 min prior to rinsing and was maintained through the subsequent incubation in LK or HK medium unless specified otherwise. For MPP+ and methylmercury treatments, 7-8 day old cultures were switched to HK medium containing 200 uM MPP+ or 0.5 uM methylmercury. Viability was assayed 24 hours later.
Neuronal survival was quantified by the MTT assay as previously described (Koulich et al., 2001). Briefly, the tetrazolium salt MTT [3-(4,5-dimethyl-2-thiazolyl)-2,5-diphenyl-2H tetrazolium bromide] was added to the cultures at a final concentration of 1 mg/ml, and incubation of the culture was continued in the CO2 incubator for a further 30 min at 37° C. The assay was stopped by adding lysis buffer [20% SDS in 50% N,N-dimethyl formamide, pH 4.7]. The absorbance was measured specrophotometrically at 570 nm after an overnight incubation at room temperature. The absorbance of a well without cells was used as background and subtracted. Results obtained using the MTT assays were confirmed using the fluorescein-diacetate method for quantification of cell viability, as previously described (D'Mello et al., 1993). Data are presented as mean+/−standard deviation. Statistical analysis was performed using ANOVA and Student-Neuman-Keuls' test.

Another test concerns ERK 1/2. The test is described as follows: ERK 1/2 phosphorylation in neuronal cultures, Western blot. The format is cell-based, rat. The following applies: LK + 1 uM GW5074 + 40 uM PD98059, 1 hour. The source says:
Activation of all three Raf proteins results in activation of MEK and ERK.
Survival of cerebellar granule neurons can be maintained by BDNF and this effect of BDNF is mediated by the Raf-MEK-ERK signaling pathway (Bonni et al., 1999). The Raf-MEK-ERK pathway is also involved in promoting survival of other neuronal and normeuronal cell types. A potent blocker of the Raf-MEK-ERK pathway is PD98059 (Alessi et al., 1995). In paradigms in which the Raf-MEK-ERK pathway mediates neuronal survival, such as BDNF-treated cerebellar granule neurons, the presence of […] blocks survival (Bonni et al., 1999). […] Lysates from the cultures were subjected to Western blotting using an antibody specific for phospho-ERK.
(§1) For whole-cell lysates, the culture medium was discarded, the neurons washed twice with ice-cold phosphate-buffered saline (PBS), and lysed in lysis buffer (1% Triton, 20 mM Tris-HCl (pH 7.5), 150 mM NaCl, 1 mM Na2EDTA, 1 mM EGTA, 2.5 mM sodium pyrophosphate, 1 mM beta-glycerophosphate, 1 mM Na3VO4, 1 μg/ml leupeptin and 1× protease inhibitor mixture). Protein concentrations were measured using a Bradford protein assay kit (Bio-Rad), and equivalent amounts of protein were mixed with 6×SDS-PAGE sample buffer. […] After staining with Ponceau S to verify uniformity of protein loads/transfer, the membranes were analyzed for immunoreactivity. […]
A general note: Immunoblotting shows a protein as a band on a membrane.

Another test has as its target T1, C-Raf (Rattus norvegicus, UniProt P11345).
T1 construct: Activities of endogenous C-Raf and B-Raf activity was assayed by measuring the ability of kinase immunoprecipitated from neuronal lysates; endogenous in cells; host or cells: primary rat cerebellar granule neurons
The test is described as follows: Activity of C-Raf immunoprecipitated from neuronal lysates, GST-MEK substrate, phospho-MEK Western. The format is cell-based. On the procedure:
The immunoprecipitated C-Raf was used in in vitro kinase assays using GST-MEK as substrate and the reaction products subjected to Western analysis. Phosphorylation of MEK was detected using a phospho-MEK antibody. […] After 1 hour of treatment, the cultures were lysed, C-Raf immunoprecipitated from the lysate and used in an in vitro kinase assay with MEK as substrate. The reaction mixture was subjected to Western analysis using a phospho-MEK antibody as probe.
(Hall-Jackson et al., 1999). […] Lysates from the cultures were used in a kinase reaction with MEK as substrate. […] Phosphorylation of MEK was detected by Western blot analysis using an phospho-MEK antibody and the same blot was reprobed with a C-Raf antibody.
After treatment, cultures of 7-8-day old neurons were washed twice with ice-cold PBS and lysed in ice cold lysis buffer. The lysates were centrifuged for 10 min at 10,000 rpm at 4° C. Protein concentrations of the supernatant were measured using a Bradford protein assay kit (Bio-Rad), and equivalent amounts of protein were incubated overnight with primary antibody (1.0-2 ug) and then for 2 h with 20 ul Protein A/G PLUS-Agarose (Santa Cruz Biotech.) Immunoprecipitates were collected by centrifugation at 2,500 rpm for 5 min at 4° C. and washed three times with lysis buffer, and pellets resuspended in electrophoresis sample buffer (187.5 mM Tris-HCl (pH 6.8 at 25° C.), 6% SDS, 30% glycerol, 150 mM DTT, 0.03% bromophenol blue), boiled for 4 min and subjected to SDS-polyacrylamide gel electrophoresis.
Activities of endogenous C-Raf and B-Raf activity was assayed by measuring the ability of kinase immunoprecipitated from neuronal lysates to phosphorylate a kinase-dead recombinant GST-MEK1 substrate. Following immunoprecipitation and multiple washes with lysis buffer, lysis buffer supplemented with 350 mM NaCl, and kinase buffer (25 mM HEPES pH 7.4 and 10 mM MgCl2), in vitro kinase assays are performed on the immune complexes using purified recombinant GST-MEK1 K97M protein as a substrate in kinase buffer supplemented with 85 μM ATP for 35 minutes at 30° C. Reactions are stopped by the addition of 3×SDS sample buffer and boiled for five minutes. Proteins are resolved by SDS-PAGE and subjected to Western blotting. The level of phosphorylated MEK is detected by a phospho-MEK antibody.

The next test deals with Akt. Kind of test: Akt phosphorylation (Ser473) in neuronal cultures, Western blot. The format is cell-based, rat. Particulars: added to cultures already switched to LK. On the procedure:
The best-studied anti-apoptotic pathway in neurons is the PI-3 kinase—Akt signaling pathway (D'Mello et al., 1997; Dudek et al., 1997; Miller et al, 1997a). IGF-1, a potent survival-promotic factor for granule neurons mediates its effect by activating the PI-3 kinase-Akt pathway (Datta et al., 1997; Dudek et al., 1997; D'Mello et al., 1998). […] Switching cerebellar granule neurons from serum-containing HK medium in which they are cultured and allowed to mature, to serum-free LK or HK medium, causes a rapid downregulation of Akt phosphorylation and activity, which can be prevented by IGF-1 (Kumari et al., 2001). […] The same blot was reprobed with an antibody against phospho-Gskβ. Also loaded on the gel were lysates from untreated cultures (maintained in medium containing serum and high K+) and a culture treated for 1 hour with 25 ng/ml IGF-1. […] GSK3βis a proapoptotic molecule that is activated during apoptosis in many neuronal and normeuronal systems. Under survival promoting conditions GSK3β is kept inactivated by phosphorylation, a modification that can be induced by Akt. […] Another proapoptotic molecule that is phosphorylated and inactivated by Akt is the transcription factor, Forkhead (Linseman et al., 2002). […] Switching of neurons to LK medium leads to a rapid downregulation of Akt activity within 2 hours.
as §1

Test [2] has as its system cerebellar granule neurons. Kind of test: Apoptosis of neurons infected with adenoviral dominant-negative Akt. The class given is cell-based, rat. Particulars: LK + 1 uM GW5074 or 25 ng/ml IGF-1. The source says:
Five day old neuronal cultures were infected with adenoviral vectors expressing either GFP or hemagluttinin (HA)-tagged dominant-negative Akt. […] Infected neurons were detected by positive staining for GFP or HA by immunocytochemistry. The proportion of apoptotic cells (condensed or fragmented nuclei) as a percentage of total infected neurons was quantified following DAPI-staining.
DnAkt and control recombinant adenovirus expressing green fluorescent protein (Ad-GFP) are propagated in HEK293T cells and purified by cesium chloride density gradient centrifugation. After quantification of titer, virus at an MOI of 10 are used to infect granule neuron cultures 5 days after plating by direct addition to the medium. Treatments are performed 24 hours after addition of virus.

T1 sequence (P11345 whole entry): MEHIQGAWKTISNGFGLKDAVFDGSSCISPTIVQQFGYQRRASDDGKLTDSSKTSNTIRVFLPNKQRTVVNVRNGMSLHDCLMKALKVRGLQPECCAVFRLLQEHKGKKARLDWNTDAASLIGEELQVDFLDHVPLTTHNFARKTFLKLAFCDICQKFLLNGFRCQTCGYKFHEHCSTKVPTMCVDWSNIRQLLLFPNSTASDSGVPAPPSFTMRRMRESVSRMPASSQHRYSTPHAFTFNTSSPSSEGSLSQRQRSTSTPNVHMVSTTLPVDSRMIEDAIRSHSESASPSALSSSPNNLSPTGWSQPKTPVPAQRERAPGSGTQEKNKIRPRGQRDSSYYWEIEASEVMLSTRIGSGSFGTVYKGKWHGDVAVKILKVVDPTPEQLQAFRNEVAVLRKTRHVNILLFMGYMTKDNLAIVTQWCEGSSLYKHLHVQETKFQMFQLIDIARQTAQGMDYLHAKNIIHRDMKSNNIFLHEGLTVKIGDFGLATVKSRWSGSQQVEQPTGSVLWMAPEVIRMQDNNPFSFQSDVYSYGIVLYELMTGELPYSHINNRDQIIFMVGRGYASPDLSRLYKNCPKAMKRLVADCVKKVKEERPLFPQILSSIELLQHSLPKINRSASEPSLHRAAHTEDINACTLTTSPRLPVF

As for `CC(C)=CCC/C(C)=C/CC/C(C)=C/CSc1ccccc1C(=O)O` [FTS, S-trans, trans-farnesylthiosalicylic acid], the “effect of Ras antagonist on neuroprotection by GW5074” value in test [1] (LK + 1 uM GW5074 + 10 uM FTS, 24 hour) is recorded as “blocks the neuroprotective effect of GW5074”.

Turning to `COc1cccc(-c2cc(=O)c3ccccc3o2)c1N` [PD98059, reference compound], in test [1], the “effect of MEK inhibitor on neuroprotection by GW5074” value is listed as “no effect on the neuroprotective effect of GW5074”. Moreover, the “effect on stimulation of ERK by GW5074” value in the test with ERK 1/2 is given as “blocks the stimulation of ERK by GW5074”.

As to `N#CC(=C(/N)Sc1ccccc1N)/C(C#N)=C(\N)Sc1ccccc1N` [U0126], the “effect of MEK inhibitor on neuroprotection by GW5074” value in test [1] was “failed to reduce survival by GW5074”.

Turning to `Cc1ccc(NC(=O)c2cccc(N(C)C)c2)cc1NC(=O)c1ccc(O)cc1` [ZM336372, N-[5-(3-Dimethylaminobenzamido)-2-methylphenyl]-4-hydroxybenzamide, reference compound], the “inhibition of LK-mediated apoptosis” value in test [1] (LK medium containing 100 uM ZM336372) is listed as “inhibits LK-mediated apoptosis”. Besides, the “effect on immunoprecipitated C-Raf when added in vitro” value on C-Raf (10 uM ZM336372 added to kinase reaction mixture) was “inhibited in vitro by ZM336372”. The “activity of C-Raf immunoprecipitated from treated cultures” value at C-Raf (LK + 50 uM ZM336372, 1 hour) was “elevated activity”.

As to “IGF-1: a potent survival-promotic factor for granule neurons”, in the test on Akt, the “de novo Akt activation after downregulation in LK” value was “robust increase in Akt phosphorylation”. In test [2], the “effect of dominant-negative Akt on survival promotion” value is given as “reduces the survival-promoting effect of IGF-1”.

Values taken from patent US20050250837A1, “Use of C-Raf inhibitors for the treatment of neurodegenerative diseases” (priority 2002, published 2005).
